Reference: US6383812B1, “Anti liver disease drug R-YEEE and method of synthesizing branched galactose-terminal glycoproteins” (Academia Sinica, priority 1999, dated 2002)

How the values were obtained:
[1] = biological target: T1, asialoglycoprotein receptor (ASGPr) (Homo sapiens, UniProt P07306+P07307); assay: Affinity of synthetic ligand to the asialoglycoprotein receptor; type: binding; details: relative to YEE(GalNAcAH)3; no method described
T1 sequence (P07306 1-291): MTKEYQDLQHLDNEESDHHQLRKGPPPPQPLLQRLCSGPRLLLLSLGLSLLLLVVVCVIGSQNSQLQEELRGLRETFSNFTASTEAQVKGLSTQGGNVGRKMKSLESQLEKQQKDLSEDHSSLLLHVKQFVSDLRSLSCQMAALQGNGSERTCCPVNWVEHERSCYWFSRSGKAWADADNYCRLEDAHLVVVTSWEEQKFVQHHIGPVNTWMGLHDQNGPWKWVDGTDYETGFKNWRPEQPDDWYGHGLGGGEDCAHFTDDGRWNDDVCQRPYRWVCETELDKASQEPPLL
T1 sequence (P07307 1-311): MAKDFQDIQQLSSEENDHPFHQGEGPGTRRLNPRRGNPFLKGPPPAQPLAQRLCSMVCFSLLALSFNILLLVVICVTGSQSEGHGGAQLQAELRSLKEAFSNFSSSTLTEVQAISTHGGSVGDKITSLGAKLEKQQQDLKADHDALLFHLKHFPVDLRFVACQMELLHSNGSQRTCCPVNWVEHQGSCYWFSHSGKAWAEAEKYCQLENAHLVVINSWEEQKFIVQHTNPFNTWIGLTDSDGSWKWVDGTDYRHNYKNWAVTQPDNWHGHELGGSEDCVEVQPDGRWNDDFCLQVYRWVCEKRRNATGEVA

[2] = biological target: T1, asialoglycoprotein receptor (ASGPr); details: reported by Lee et al., Glycoconjugate J., 1987; cited from earlier work

Substance	affinity to asialoglycoprotein receptors [1]	affinity to the ASGP-r [2]
tris-(N-acetylgalactosamine aminohexyl)glycoside of tyrosyl(glutamyl)2 glutamate [YEEE(GalNAcAH)3]	comparable to YEE(GalNAcAH)3	
tris-(N-acetylgalactosamine aminohexyl)glycoside of tyrosyl(glutamyl)glutamate [YEE(GalNAcAH)3]		subnanomolar
